pIC50: −log10 of the molar value.
Tests used:
human orexin-1 receptor = human orexin-1 receptor (Homo sapiens (Human), UniProt O43613); assay: In vitro assay: intracellular calcium measurements (FLIPR), antagonistic activity; format: cell-based; conditions: CHO cells expressing human orexin-1 receptor, orexin-A agonist, geometric mean, read-out: IC50 Ox1
Procedure, shortened: (§1)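 In this FLIPR calcium assay, antagonists were given 120 min on CHO cells with human OX1 or OX2 receptor before orexin-A (3 nM final) was added. Peak fluorescence was measured at 1 s intervals against the uninhibited agonist peak, and IC50s were averaged geometrically.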

human orexin-2 receptor = human orexin-2 receptor (Homo sapiens (Human), UniProt O43614); assay: as above; format: cell-based; conditions: CHO cells expressing human orexin-2 receptor, orexin-A agonist, geometric mean, read-out: IC50 Ox2
Sequence of human orexin-2 receptor (O43614 whole entry): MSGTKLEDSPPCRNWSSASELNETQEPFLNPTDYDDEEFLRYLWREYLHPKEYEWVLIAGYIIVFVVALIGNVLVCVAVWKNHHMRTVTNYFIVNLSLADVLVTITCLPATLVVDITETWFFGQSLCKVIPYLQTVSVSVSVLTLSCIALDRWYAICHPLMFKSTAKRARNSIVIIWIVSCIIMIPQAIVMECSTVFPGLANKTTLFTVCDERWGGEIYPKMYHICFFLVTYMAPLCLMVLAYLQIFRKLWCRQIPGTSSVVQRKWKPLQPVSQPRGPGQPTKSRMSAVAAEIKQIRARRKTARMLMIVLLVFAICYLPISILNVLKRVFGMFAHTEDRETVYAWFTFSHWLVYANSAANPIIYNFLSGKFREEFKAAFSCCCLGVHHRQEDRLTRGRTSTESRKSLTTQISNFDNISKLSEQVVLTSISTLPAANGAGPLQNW
Procedure, shortened: as §1

Sequence of human orexin-1 receptor (O43613 whole entry): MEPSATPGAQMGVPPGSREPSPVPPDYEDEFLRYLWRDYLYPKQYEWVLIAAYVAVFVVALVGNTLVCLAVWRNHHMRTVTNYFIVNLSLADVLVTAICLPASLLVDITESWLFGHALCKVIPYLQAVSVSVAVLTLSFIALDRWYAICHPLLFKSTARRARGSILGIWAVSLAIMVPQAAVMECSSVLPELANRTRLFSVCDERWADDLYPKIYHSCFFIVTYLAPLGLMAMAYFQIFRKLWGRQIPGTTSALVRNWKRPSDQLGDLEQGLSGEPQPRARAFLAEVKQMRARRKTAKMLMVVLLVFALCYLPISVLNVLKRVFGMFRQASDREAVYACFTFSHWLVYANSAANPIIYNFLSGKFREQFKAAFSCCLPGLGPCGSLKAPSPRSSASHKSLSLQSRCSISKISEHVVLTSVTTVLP

SMILES	pIC50 (human orexin-1 receptor)	pIC50 (human orexin-2 receptor)
COc1ccc(-c2sc(C)nc2C(=O)N2CC[C@H](C)[C@H]2c2nc3c(C)c(Cl)ccc3[nH]2)cn1 [Ex. 4.69]	8.70	6.72
C=C1C[C@@H](c2nc3ccc(Cl)c(C)c3[nH]2)N(C(=O)c2nc(C)ccc2-n2cccn2)C1 [Ex. 6.135]	7.08	8.30
COCCn1c([C@]2(C)CCCN2C(=O)c2cc(C)ccc2-c2ccc(C)cc2)nc2cc(C)c(C)cc21 [Ex. 7.41]	7.36	6.97
CSc1cccc2nc([C@@H]3CCCN3C(=O)c3nc(C)sc3-c3cccc(Cl)c3)[nH]c12 [Ex. 1.13]	7.82	7.62
Cc1ccccc1-c1nc(C(=O)N2CCC[C@@]2(C)c2nc3cc(Cl)c(C(F)(F)F)cc3[nH]2)c(-c2ccc(F)cc2)s1 [Ex. 5.286]	7.40	5.34
Cc1c(Cl)ccc2[nH]c([C@@H]3[C@@H](C)CCN3C(=O)c3cc(F)ccc3-c3ncccn3)nc12 [Ex. 4.175]	7.85	6.60
Cc1c(Cl)ccc2[nH]c([C@]3(C)CCCN3C(=O)c3cc(F)ccc3-c3ccccc3)nc12 [Ex. 5.218]	7.89	7.44
COc1ccc(-c2ccc(C)cc2C(=O)N2CCC[C@@]2(C)c2nc3c(C)c(C)ccc3[nH]2)cc1 [Ex. 5.112]	7.92	7.80
COc1cccc(-c2ccccc2C(=O)N2CCC[C@@]2(C)c2nc3cc(C)c(C)cc3[nH]2)c1 [Ex. 5.101]	7.23	7.27
CSc1ccc2nc([C@@H]3CCCN3C(=O)c3nc(C)sc3-c3ccc(C)cc3)[nH]c2c1 [Ex. 1.40]	7.13	7.64
CSc1ccc2[nH]c([C@@H]3CCCN3C(=O)c3nc(C)ccc3-n3nccn3)nc2c1 [Ex. 1.180]	5.83	7.30
Cc1cc2[nH]c([C@@H]3[C@@H](C)CCN3C(=O)c3c(-c4ccccc4)ccc(C)c3F)nc2cc1Cl [Ex. 4.115]	8.15	6.12
CCc1ccc(-c2sc(C)nc2C(=O)N2CCC[C@H]2c2nc3ccc(OC)cc3[nH]2)cc1 [Ex. 1.24]	6.07	7.09
C=C1C[C@@H](c2nc3cc(OC)ccc3[nH]2)N(C(=O)c2nc(C)sc2-c2cccc(C(F)(F)F)c2)C1 [Ex. 6.30]	6.69	7.51
COc1cc2nc([C@]3(C)CCCN3C(=O)c3ncsc3-c3cccc(Cl)c3)[nH]c2cc1OC [Ex. 5.80]	6.26	6.44
COc1cc2nc([C@]3(C)CCCN3C(=O)c3cc(C)ccc3-n3nccn3)[nH]c2cc1OC [Ex. 5.21]	7.66	7.74
COc1ccc(-c2sc(C)nc2C(=O)N2CC[C@H](C)[C@H]2c2nc3c(C(F)(F)F)cccc3[nH]2)cc1 [Ex. 4.159]	8.40	6.67
C=C1C[C@@H](c2nc3cccc(C)c3[nH]2)N(C(=O)c2nc(C)sc2-c2cccc(Br)c2)C1 [Ex. 6.104]	7.89	9.10
Cc1cc(C(=O)N2CCC[C@@]2(C)c2nc3cc(C(F)(F)F)ccc3[nH]2)c(-n2nccn2)cc1C [Ex. 5.170]	8.70	7.89
COc1ccc(-n2nccn2)c(C(=O)N2CC[C@H](C)[C@H]2c2nc3c(C)cc(Cl)cc3[nH]2)c1 [Ex. 4.97]	8.40	6.89

SMILES	pIC50 (human orexin-1 receptor)	pIC50 (human orexin-2 receptor)
COc1cccc(-c2sc(C)nc2C(=O)N2CCC[C@H]2c2nc3ccc(SC)cc3[nH]2)c1 [Ex. 1.37]	6.81	7.21
Cc1ccc(-c2ccccc2F)c(C(=O)N2CCC[C@@]2(C)c2nc3cc(C)c(C)cc3[nH]2)c1 [Ex. 5.95]	7.96	7.54
C=C1CN(C(=O)c2nc(C)sc2-c2ccc(Cl)cc2)C(C)(c2nc3cc(OC)ccc3[nH]2)C1 (racemic) [Ex. 6.146]	7.80	7.48
Cc1ccc(-c2ccccc2F)c(C(=O)N2CCC[C@@]2(C)c2nc3cc(C)c(C)cc3n2CC2CC2)c1 [Ex. 7.50]	7.18	6.77
Cc1ccc(-c2cccc(C)c2C)c(C(=O)N2CCC[C@@]2(C)c2nc3cc(C(F)(F)F)c(Cl)cc3[nH]2)c1 [Ex. 5.161]	6.39	6.41
Cc1c(Cl)ccc2[nH]c([C@]3(C)CCCN3C(=O)c3nc(-c4cccc(F)c4F)sc3-c3ccc(F)cc3)nc12 [Ex. 5.251]	7.89	6.11
Cc1ccc(-c2cccc(OC(F)(F)F)c2)c(C(=O)N2CCC[C@@]2(C)c2nc3cc(C(F)(F)F)ccc3[nH]2)c1 [Ex. 5.184]	6.52	6.38
COc1ccc(-c2ccc(C)cc2C(=O)N2CCC[C@@]2(C)c2nc3cc(C)c(C)cc3[nH]2)cc1 [Ex. 5.94]	7.85	7.43
CO[C@@H]1C[C@@H](c2nc3c(C)c(Cl)ccc3[nH]2)N(C(=O)c2nc(C)sc2-c2cccc(Cl)c2)C1 [Ex. 3.9]	9.00	8.70
Cc1nc(C(=O)N2CCCC2c2nc3c(C(F)(F)F)cc(C(F)(F)F)cc3[nH]2)c(-c2ccccc2)s1 (stereo not shown) [Ex. 1.118]	6.72	6.44
Cc1c(Cl)ccc2[nH]c([C@@H]3[C@@H](C)CCN3C(=O)c3cc(F)ccc3-c3ccccn3)nc12 [Ex. 4.165]	7.70	6.01
Cc1nc(C(=O)N2CCC[C@@]2(C)c2nc3cc(OC(F)(F)F)ccc3[nH]2)c(-c2ccc(F)cc2)s1 [Ex. 5.248]	7.66	6.31
Cc1ccc(-c2ccccc2C(=O)N2CCC[C@@]2(C)c2nc3c(C)c(C)ccc3[nH]2)cc1 [Ex. 5.120]	7.32	7.59
C=C1C[C@@H](c2nc3cc(Cl)c(C(F)(F)F)cc3[nH]2)N(C(=O)c2ccc(C)cc2-n2nccn2)C1 [Ex. 6.182]	7.92	8.22
Cc1cc(C(=O)N2CCC[C@@]2(C)c2nc3c(F)c(F)ccc3[nH]2)c(-n2nccn2)cc1C [Ex. 5.199]	7.92	7.08
C=C1C[C@@H](c2nc3cccc(C)c3[nH]2)N(C(=O)c2nc(C)sc2-c2ccc(Br)cc2)C1 [Ex. 6.100]	7.26	8.40
COc1ccc(-n2nccn2)c(C(=O)N2CCC[C@H]2c2nc3ccc(OC)cc3[nH]2)c1 [Ex. 1.158]	6.27	7.70
C=C1C[C@@H](c2nc3cccc(C)c3[nH]2)N(C(=O)c2nc(C)sc2-c2ccc(F)cc2)C1 [Ex. 6.106]	7.00	8.30
Cc1cccc2[nH]c([C@]3(C)CCCN3C(=O)c3ccccc3-n3nccn3)nc12 [Ex. 5.52]	6.97	7.37
COc1ccc(-c2ccc(C#N)cc2)c(C(=O)N2CCC[C@@]2(C)c2nc3c(C)c(Cl)ccc3[nH]2)c1F [Ex. 5.308]	7.68	6.91

SMILES	pIC50 (human orexin-1 receptor)	pIC50 (human orexin-2 receptor)
CSc1ccc2nc([C@@H]3CCCN3C(=O)c3cnc(C)nc3-c3ccc(Cl)c(Cl)c3)[nH]c2c1 [Ex. 1.49]	7.49	7.38
COc1cc2nc([C@]3(C)CCCN3C(=O)c3cc(Cl)ccc3-n3nccn3)n(C)c2cc1OC [Ex. 7.24]	7.48	7.48
C[C@@]1(c2nc3cc(C(F)(F)F)c(Cl)cc3[nH]2)CCCN1C(=O)c1cc(Cl)ccc1-n1nccn1 [Ex. 5.139]	8.70	7.68
Cc1ccc(-c2cccnc2)c(C(=O)N2CC[C@H](C)[C@H]2c2nc3cc(Cl)c(C)cc3[nH]2)c1 [Ex. 4.104]	7.85	5.78
Cc1cc(C(=O)N2CCC[C@@]2(C)c2nc3cc(C)c(C)cc3n2C)c(-n2nccn2)cc1C [Ex. 7.17]	8.40	7.72
C[C@@]1(c2nc3cc(C(F)(F)F)c(Cl)cc3[nH]2)CCCN1C(=O)c1cc(C(F)(F)F)ccc1-n1nccn1 [Ex. 5.144]	7.70	6.68
Cc1nc(C(=O)N2CCCC2c2nc3c(Cl)cc(C(F)(F)F)cc3[nH]2)c(-c2ccccc2)s1 (stereo not shown) [Ex. 1.125]	7.41	7.14
Cc1nc(C(=O)N2CC[C@H](C)[C@H]2c2nc3cc(C)c(C)cc3[nH]2)c(-c2ccc(Cl)cc2)s1 [Ex. 4.87]	8.40	5.68
Cc1ccc(-n2nccn2)c(C(=O)N2CCC[C@@]2(C)c2nc3cc(C(F)(F)F)c(Cl)cc3[nH]2)n1 [Ex. 5.145]	8.22	7.52
Cc1ccc2[nH]c([C@]3(C)CCCN3C(=O)c3ccccc3-c3ccc(F)cc3)nc2c1C [Ex. 5.122]	7.00	7.13
CO[C@@H]1C[C@@H](c2nc3c(C)cccc3[nH]2)N(C(=O)c2nc(C)sc2-c2ccccc2)C1 [Ex. 3.4]	7.36	7.85
COc1ccc2nc([C@@H]3CCCN3C(=O)c3cc(C)ccc3-n3nccn3)[nH]c2c1 [Ex. 1.16]	6.61	8.30
Cc1ccc(-c2sccc2C(=O)N2CC[C@H](C)[C@H]2c2nc3cc(C(F)(F)F)ccc3[nH]2)cc1C [Ex. 4.144]	8.05	6.33
C=C1C[C@@H](c2nc3cc(C)c(C)cc3[nH]2)N(C(=O)c2cc(C)ccc2-n2nccn2)C1 [Ex. 6.61]	7.39	8.40
CSc1ccc2[nH]c([C@@H]3CCCN3C(=O)c3ccccc3-n3cccn3)nc2c1 [Ex. 1.176]	5.66	7.00
C=C1CC(c2nc3cc(OC)ccc3[nH]2)N(C(=O)c2nc(C3CC3)sc2-c2cccc(C)c2)C1 (racemic) [Ex. 6.86]	7.66	7.70
Cc1cc2nc([C@@H]3[C@@H](C)CCN3C(=O)c3cc(Cl)ccc3-n3nccn3)[nH]c2cc1C [Ex. 4.81]	8.40	7.10
Cc1cccc(-c2sc(C)nc2C(=O)N2CC[C@H](C)[C@H]2c2nc3c(Cl)cccc3[nH]2)c1 [Ex. 4.122]	8.52	6.21
C=C1C[C@@H](c2nc3cc(OC)ccc3[nH]2)N(C(=O)c2nccnc2-c2ccc(C)cc2)C1 [Ex. 6.4]	5.60	6.93

From patent publication US9732075B2, “Benzimidazole-proline derivatives” (IDORSIA PHARMACEUTICALS LTD, priority 2012, dated 2017)
